In ChEMBL document CHEMBL4043211, “Synthesis and anti-enterovirus activity of new analogues of MDL-860” (Bioorg Med Chem Lett, 2017):

Legend:
Coxsackievirus B1 [1] = experiment: Antiviral activity against Coxsackievirus B1 infected in new born ICR mouse assessed as increase in mean survival time at 75 mg/kg, sc administered for 12 days; type: functional
Coxsackievirus B1 [2] = experiment: Antiviral activity against Coxsackievirus B1 Connecticut 5 infected in human Hep2 cells assessed as inhibition of virus-induced cytopathic effect after 48 hrs by neutral red uptake assay; type: functional, cell-based
[3] = Selectivity index, ratio of CC50 for human Hep2 cells to IC50 for Coxsackievirus B1 Connecticut 5 infected in human Hep2 cells; type: toxicity, cell-based; conditions: HEp-2 cells, read-out: Ratio CC50/IC50
Coxsackievirus B1 [4] = experiment: Antiviral activity against Coxsackievirus B1 infected in new born ICR mouse assessed as protection index at 75 mg/kg, sc administered for 12 days (reference value: 0%); type: functional
[5] = Cytotoxicity against human Hep2 cells assessed as decrease in cell viability after 48 hrs by neutral red uptake assay; type: cell-based; conditions: HEp-2 cells
Poliovirus 1 = experiment: Antiviral activity against Poliovirus 1 LSc-2ab infected in human Hep2 cells assessed as inhibition of virus-induced cytopathic effect after 48 hrs by neutral red uptake assay; type: functional, cell-based
[6] = Selectivity index, ratio of CC50 for human Hep2 cells to IC50 for Poliovirus 1 infected in human Hep2 cells; type: toxicity, cell-based; conditions: HEp-2 cells, read-out: Ratio CC50/IC50
Coxsackievirus B1 [7] = experiment: Antiviral activity against Coxsackievirus B1 infected in new born ICR mouse assessed as mortality at 75 mg/kg, sc administered for 12 days (reference value: 100%); type: functional; conditions: Enterovirus B, 288 h
Coxsackievirus B3 = experiment: Antiviral activity against Coxsackievirus B3 Nancy infected in human Hep2 cells assessed as inhibition of virus-induced cytopathic effect after 48 hrs by neutral red uptake assay; type: functional, cell-based
[8] = Selectivity index, ratio of CC50 for human Hep2 cells to IC50 for Coxsackievirus B3 Nancy infected in human Hep2 cells; type: toxicity, cell-based; conditions: HEp-2 cells, read-out: Ratio CC50/IC50
Coxsackievirus B1 [9] = experiment: Antiviral activity against Coxsackievirus B1 infected in new born ICR mouse assessed as mortality at 50 mg/kg, sc administered for 12 days (reference value: 100%); type: functional; conditions: Enterovirus B, 288 h
Coxsackievirus B1 [10] = experiment: Antiviral activity against Coxsackievirus B1 infected in new born ICR mouse assessed as increase in mean survival time at 50 mg/kg, sc administered for 12 days; type: functional
Coxsackievirus B1 [11] = experiment: Antiviral activity against Coxsackievirus B1 infected in new born ICR mouse assessed as protection index at 50 mg/kg, sc administered for 12 days (reference value: 0%); type: functional
Coxsackievirus B1 [12] = experiment: Antiviral activity against Coxsackievirus B1 infected in new born ICR mouse assessed as protection index at 25 mg/kg, sc administered for 12 days (reference value: 0%); type: functional
Coxsackievirus B1 [13] = experiment: Antiviral activity against Coxsackievirus B1 infected in new born ICR mouse assessed as increase in mean survival time at 25 mg/kg, sc administered for 12 days; type: functional
Coxsackievirus B1 [14] = experiment: Antiviral activity against Coxsackievirus B1 infected in new born ICR mouse assessed as mortality at 25 mg/kg, sc administered for 12 days (reference value: 100%); type: functional; conditions: Enterovirus B, 288 h
[15] = Enterovirus B, Connecticut 5, HEp-2, 48 h, read-out: IC50
[16] = Enterovirus C, LSc-2ab, HEp-2, 48 h, read-out: IC50
[17] = Enterovirus B, Nancy, HEp-2, 48 h, read-out: IC50

SMILES	IC50 (Coxsackievirus B1 [2]; [15])	selectivity ratio [3]	CC50 at 48 h [5]	IC50 (Poliovirus 1; [16])	selectivity ratio [6]	IC50 (Coxsackievirus B3; [17])	selectivity ratio [8]	IC50 (Poliovirus 1)	IC50 (Coxsackievirus B1 [2])	IC50 (Coxsackievirus B3)	further results
N#Cc1cc([N+](=O)[O-])ccc1Oc1ccc(Cl)c(Cl)c1	0.8 µM	587	493 µM	6.8 µM	72.5	2.7 µM	182				MST (Coxsackievirus B1 [1]): 3 days; PI (Coxsackievirus B1 [4]): 0%; mortality at 75 mg/kg (Coxsackievirus B1 [7]): 100%
Cc1c(Br)cc(Br)c(Oc2ccc([N+](=O)[O-])cc2C#N)c1Br	256 µM	2.2	570 µM			29.6 µM	19.6	Not Active			
N#Cc1cc([N+](=O)[O-])ccc1Oc1c(Cl)c(Cl)c(Cl)c(Cl)c1Cl	10.9 µM	10.9	119 µM			5.8 µM	20.5	Not Active			
CC1(C)CC(Nc2ccc([N+](=O)[O-])cc2C#N)CC(C)(C)N1			675 µM			426 µM	1.5	Not Active	Not Active		
N#Cc1cc([N+](=O)[O-])ccc1Oc1ncn(-c2ccccc2)n1	190 µM	3	571 µM					Not Active		Not Active	
N#Cc1cc([N+](=O)[O-])ccc1Oc1c(F)cccc1F	0.7 µM	507	355 µM	6.8 µM	52.2					Not Active	mortality at 50 mg/kg (Coxsackievirus B1 [9]): 66.7%; MST (Coxsackievirus B1 [10]): 5.4 days; PI (Coxsackievirus B1 [11]): 33.3%
N#Cc1cc([N+](=O)[O-])ccc1Oc1ccccc1-c1cn2ccccc2n1			718 µM					Not Active	Not Active	Not Active	
COc1ccc(Oc2ccc([N+](=O)[O-])cc2C#N)c(C(C)(C)C)c1			22 µM					Not Active	Not Active	Not Active	
N#Cc1cc([N+](=O)[O-])ccc1Oc1ccc(F)c(F)c1	0.8 µM	405	320 µM	2.7 µM	118					Not Active	mortality at 50 mg/kg (Coxsackievirus B1 [9]): 50%; MST (Coxsackievirus B1 [10]): 5 days; PI (Coxsackievirus B1 [11]): 50%
N#Cc1cc([N+](=O)[O-])ccc1N1C[C@@H]2C[C@H](C1)c1cccc(=O)n1C2	152 µM	3.2	492 µM	234 µM	2.1					Not Active	
N#Cc1cc([N+](=O)[O-])ccc1Oc1c(F)cc(F)cc1F	0.75 µM	690	518 µM	2.7 µM	192					Not Active	PI (Coxsackievirus B1 [12]): 11.6%; MST (Coxsackievirus B1 [13]): 2.6 days; mortality at 25 mg/kg (Coxsackievirus B1 [14]): 88.4%
N#Cc1cc([N+](=O)[O-])ccc1Sc1ccccc1Cl			53.8 µM			9.9 µM	5.4	Not Active	Not Active		
Cc1ccc(C(C)C)c(Oc2ccc([N+](=O)[O-])cc2C#N)c1	16.2 µM	5.8	94.3 µM					Not Active		Not Active	
